Data taken from patent US8846711B2, “Heterocyclic acrylamides and their use as pharmaceuticals” (Fab Pharma S.A.S., priority 2009, dated 2014).
In brackets after ≈: the same amount, converted by molar mass.

Columns and labels:
S. aureus CIP 54.146 = experiment: MIC determination using broth microdilution method; assay type: cell-based; conditions: Staphylococcus aureus, CIP54 / MSSA, read-out: MIC (μg/ml) S. aureus CIP 54.146
Description: The compounds of the invention are useful antibacterial agents having a selective spectrum of activity in vitro against bacterial strains relying on FabI and related targets. […] The activity is presented as Minimum Inhibitory Concentration (MIC) expressed in μg/ml and was determined using broth microdilution or Agar dilution methods.
(§1) Antibacterial activity was determined on strains from Mutabilis internal collection.
This protocol is compliant with Clinical Laboratory Standards Institute (CLSI) methodology as described in M7-A7 document of the CLSI. The compound to be tested is diluted according to a geometric series of reason 2 in pure DMSO. Dilutions are transferred in sterile polystyrene microplates, followed by mid-log phase bacteria in cation-adjusted Muller-Hinton broth (ca-MHB, Fluka, Reference 90922) with a final inoculum of 5×10^5 cfu/ml. Microplates are incubated overnight at 35° C. MIC is defined as the lowest concentration of antimicrobial agent that completely prevents visible bacterial growth. All manipulations, but compound handling (in pure DMSO), are performed under sterile conditions. The final concentration of DMSO in the plates is 2%.

[1] = tested on: Staphylococcus aureus NRS100; experiment: MIC determination using agar dilution method; assay type: cell-based; conditions: MRSA / NRS 100, read-out: MIC (μg/ml) NRS100
Description: as §1
(§2) This protocol is compliant with Clinical Laboratory Standards Institute (CLSI) methodology as described in M7-A7 document of the CLSI. The compound to be tested is incorporated into Mueller-Hinton Agar medium (Fluka, Reference 70191) at one concentration per plate according to a geometric series of reason 2. Plates are inoculated with mid-log phase bacteria (inoculum=1×10^4 cfu/spot) and incubated overnight at 35° C. […] All manipulations, but compound handling (in pure DMSO), are performed under sterile conditions. The final DMSO concentration of DMSO in the plates is 2%. Vancomycin is used as reference.

[2] = tested on: Staphylococcus aureus NRS119; experiment: MIC determination using agar dilution method; assay type: cell-based; conditions: MRSA / NRS 119, read-out: MIC (μg/ml) NRS119
Description: as §1, §2

[3] = tested on: Staphylococcus aureus NRS120; experiment: MIC determination using agar dilution method; assay type: cell-based; conditions: MRSA / NRS 120, read-out: MIC (μg/ml) NRS120
Description: as §1, §2

[4] = tested on: Staphylococcus aureus NRS121; experiment: MIC determination using agar dilution method; assay type: cell-based; conditions: MRSA / NRS 121, read-out: MIC (μg/ml) NRS121
Description: as §1, §2

[5] = tested on: Staphylococcus aureus NRS123; experiment: MIC determination using agar dilution method; assay type: cell-based; conditions: MRSA / NRS 123, read-out: MIC (μg/ml) NRS123
Description: as §1, §2

[6] = tested on: Staphylococcus aureus NRS127; experiment: MIC determination using agar dilution method; assay type: cell-based; conditions: MRSA / NRS 127, read-out: MIC (μg/ml) NRS127
Description: as §1, §2

[7] = tested on: Staphylococcus aureus NRS128; experiment: MIC determination using agar dilution method; assay type: cell-based; conditions: MSSA / NRS 128, read-out: MIC (μg/ml) NRS128
Description: as §1, §2

[8] = tested on: Staphylococcus aureus NRS130; experiment: MIC determination using agar dilution method; assay type: cell-based; conditions: MSSA / NRS 130, read-out: MIC (μg/ml) NRS130
Description: as §1, §2

[9] = tested on: Staphylococcus aureus NRS192; experiment: MIC determination using agar dilution method; assay type: cell-based; conditions: MRSA / NRS 192, read-out: MIC (μg/ml) NRS192
Description: as §1, §2

[10] = tested on: Staphylococcus aureus NRS22; experiment: MIC determination using agar dilution method; assay type: cell-based; conditions: MRSA / NRS 22, read-out: MIC (μg/ml) NRS22
Description: as §1, §2

[11] = tested on: Staphylococcus aureus NRS262; experiment: MIC determination using agar dilution method; assay type: cell-based; conditions: MSSA / NRS 262, read-out: MIC (μg/ml) NRS262
Description: as §1, §2

[12] = tested on: Staphylococcus aureus NRS269; experiment: MIC determination using agar dilution method; assay type: cell-based; conditions: MRSA / NRS 269, read-out: MIC (μg/ml) NRS269
Description: as §1, §2

[13] = tested on: Staphylococcus aureus NRS382; experiment: MIC determination using agar dilution method; assay type: cell-based; conditions: MRSA / NRS 382, read-out: MIC (μg/ml) NRS382
Description: as §1, §2

[14] = tested on: Staphylococcus aureus NRS383; experiment: MIC determination using agar dilution method; assay type: cell-based; conditions: MRSA / NRS 383, read-out: MIC (μg/ml) NRS383
Description: as §1, §2

[15] = tested on: Staphylococcus aureus NRS384; experiment: MIC determination using agar dilution method; assay type: cell-based; conditions: MRSA / NRS 384, read-out: MIC (μg/ml) NRS384
Description: as §1, §2

[16] = tested on: Staphylococcus aureus NRS385; experiment: MIC determination using agar dilution method; assay type: cell-based; conditions: MRSA / NRS 385, read-out: MIC (μg/ml) NRS385
Description: as §1, §2

[17] = tested on: Staphylococcus aureus NRS386; experiment: MIC determination using agar dilution method; assay type: cell-based; conditions: MRSA / NRS 386, read-out: MIC (μg/ml) NRS386
Description: as §1, §2

[18] = tested on: Staphylococcus aureus NRS482; experiment: MIC determination using agar dilution method; assay type: cell-based; conditions: MRSA / NRS 482, read-out: MIC (μg/ml) NRS482
Description: as §1, §2

[19] = tested on: Staphylococcus aureus NRS483; experiment: MIC determination using agar dilution method; assay type: cell-based; conditions: MRSA / NRS 483, read-out: MIC (μg/ml) NRS483
Description: as §1, §2

[20] = tested on: Staphylococcus aureus NRS484; experiment: MIC determination using agar dilution method; assay type: cell-based; conditions: MRSA / NRS 484, read-out: MIC (μg/ml) NRS484
Description: as §1, §2

[21] = tested on: Staphylococcus aureus strain ATCC 29213; experiment: In vivo antibacterial activity, thigh infection model in neutropenic Swiss mice; conditions: 100 mg/kg orally, 1.5 h after infection, FIG. 1

O=C1CCc2cc(/C=C/C(=O)N3CC(OCc4cccs4)C3)cnc2N1 [Example 12, 6-{(1E)-3-Oxo-3-[3-(2-thienylmethoxy)azetidin-1-yl]prop-1-en-1-yl}-3,4-dihydro-1,8-naphthyridin-2(1H)-one]
MIC (S. aureus CIP 54.146): 4 µg/mL (≈ 10.8 µM) | MIC [1]: 2 µg/mL (≈ 5.41 µM) | MIC [2]: 2 µg/mL (≈ 5.41 µM) | MIC [3]: 2 µg/mL (≈ 5.41 µM) | MIC [4]: 2 µg/mL (≈ 5.41 µM) | MIC [5]: 2 µg/mL (≈ 5.41 µM) | MIC [6]: 2 µg/mL (≈ 5.41 µM) | MIC [7]: 1 µg/mL (≈ 2.71 µM) | MIC [8]: 2 µg/mL (≈ 5.41 µM) | MIC [9]: 4 µg/mL (≈ 10.8 µM) | MIC [10]: 4 µg/mL (≈ 10.8 µM) | MIC [11]: 4 µg/mL (≈ 10.8 µM) | MIC [12]: 4 µg/mL (≈ 10.8 µM) | MIC [13]: 4 µg/mL (≈ 10.8 µM) | MIC [14]: 4 µg/mL (≈ 10.8 µM) | MIC [15]: 4 µg/mL (≈ 10.8 µM) | MIC [16]: 2 µg/mL (≈ 5.41 µM) | MIC [17]: 4 µg/mL (≈ 10.8 µM) | MIC [18]: 4 µg/mL (≈ 10.8 µM) | MIC [19]: 4 µg/mL (≈ 10.8 µM) | MIC [20]: 4 µg/mL (≈ 10.8 µM) | in vivo antibacterial activity (bacterial burden in the thigh of infected mice) [21]: able to protect mice against thigh dissemination
